Results: the OPERA property sets (Mansouri et al. 2018)

Structure (SMILES) | logP
CCc1ccc(C(=O)O)cc1 | 2.89
CCCc1ccc(C(=O)O)cc1 | 3.42
O=C(O)c1ccc(Cl)c(Cl)c1 | 3.25
O=C(O)c1cc(Cl)ccc1Cl | 2.82
O=Cc1ccc(C(=O)O)cc1 | 1.76
NCc1ccc(C(=O)O)cc1 | 1.03
CCCOc1ccc(C(=O)O)cc1 | 3.09
[N-]=[N+]=Nc1ccc(C(=O)O)cc1 | 2.54
CN(C)c1ccc(C(=O)O)cc1 | 1.28
CC(=O)Nc1cccc(C(=O)O)c1 | 1.32
